Test system: hyperprolactinemia-induced female rats
Test: Hyperprolactinemia-induced (metoclopramide) animal model of premenstrual syndrome, serum prolactin and progesterone by ELISA
Format: in vivo
Conditions: 50 mg/kg metoclopramide to the abdominal cavity for 5 days
Protocol: Metoclopramide is used as an antiemetic drug, and increases the secretion of prolactin by inhibiting dopamine secretion, and accordingly, it is known as a drug that inhibits the secretion of progesterone, luteinizing hormone, and follicle-stimulating hormone (Wang et al., 2014). Therefore, in the present invention, 50 mg/kg of metoclopramide was administered to the abdominal cavity of female rats for 5 days, after which hyperprolactinemia was induced to establish an animal model of premenstrual syndrome caused by hormone secretion disorder. Rats (females) were obtained from Raonbio, and were acclimatized for 1 week while general solid feed and water were freely supplied thereto. The environmental conditions of the animal room were set to a temperature of 23±3° C., a relative humidity of 50±10%, a lighting time of 12 hours (8 am to 8 pm), a ventilation frequency of 10 to 20 times/hour, and an illumination intensity of 150 to 300 Lux. During the experiment, the temperature and humidity of the animal room were automatically controlled using a thermo-hygrostat. […] After termination of the experiment, blood was collected, serum was isolated therefrom, and the amounts of secreted prolactin and progesterone in the serum were measured using an ELISA kit. […]

CCN(CC)CCNC(=O)c1cc(Cl)c(N)cc1OC [metoclopramide, Metoclopramide]
Prolactin levels in the serum after model induction (FIG. 1): increased
Progesterone levels in the serum after model induction (fraction of normal) (FIG. 2): about ⅕
